{"source": "paper PMC11288129", "about": "“Diversely evolved xibalbin variants from remipede venom inhibit potassium channels and activate PKA-II and Erk1/2 signaling” (BMC Biology, 2024)", "system": "Erk1/2 (T202/Y204) in rat DRG neurons", "assay": "High-content imaging of pERK1/2 in DRG sensory neurons", "assay_type": "cell-based", "settings": "for pErk1/2 activation: 5 and 30 min, 0.005 to 0.8 µg/µL; for pErk1/2 response by neuron size: xibalbins 0.8 µg/µL", "method": "To gauge sensory neuron activity in response to various activating stimuli, including electrical activity, phosphorylation state detection of protein kinase A type II (PKA-II) and MAP kinase Erk1/2 can act as surrogate measurements. Consequently, we tested for increased phosphorylation states in a concentration-dependent manner following exposure to xibalbins. Dissociated DRG neurons were cultured overnight and then exposed to increasing concentrations of the corresponding xibalbins for 5 min and 30 min, respectively. As a positive control, forskolin (Fsk) was also used to induce cAMP synthesis. The activity of PKA-II was monitored by antibodies directed against the phosphorylation site of the inhibitory regulatory subunits RIIα/β, which is exclusively accessible when the catalytic kinase domain is released during kinase activation. For measuring Erk1/2 activity, phospho-sites on Erk1/2 (T202/Y204) were monitored through immunofluorescence, as these sites are phosphorylated during activation. Cellular images were captured using HCI microscopy (Fig. 8A), and the average intensity of each phospho-antibody was quantified (Fig. 8B).\nFig. 8 A Representative images of rat DRG neurons stimulated with PBS (Ctrl) and xib1b (0.8 µg/µL). Cells were stained for UCHL1, pRII, pERK1/2, and Hoechst followed by fixation and staining with standard immunocytochemistry protocols. Green-encircled neurons indicate automatically selected objects. Scale bar: 100 µm. B Mean intensities of UCHL1, pRII, and pERK1/2. The same UCHL1 intensities were observed among tested groups. Forskolin (Fsk), an activator of adenylyl cyclase, was used as a positive control. Fsk at 6 µM concentration induced an increase in pRII and pERK1/2 intensities at 5 and 30 min. Number of analyzed cells per replica: 750 ± 200. Eight independent replicas. C–F Concentration responses of xibalbin toxins (0.005 to 0.8 µg/µL) and mean intensities of pRII and pERK1/2 at 5 min and 30 min. G–H Size versus pRII and pErk1/2 intensities of cells treated with 0.8 µg/µL of xib1 and xib13. Small-sized cells were responding to xibalbins. Statistical significance was assessed using one-way ANOVA with Dunnett’s post hoc test. Data represent mean ± S.E.M (standard error of the mean), n = 4, see “Methods” for details and Additional File 6: Table S2 for individual data values\nMale Sprague Dawley rats (250–400 g, 8–16 weeks old) were obtained from Envigo. Rats were kept in 12 h of light/darkness cycles. All experiments were performed in accordance with the German animal welfare law with permission of the District Government for Nature and Environment, NRW (84–02.05.20.13.045, 4.18.003). Rats were scarified by slow inhalation of CO2 which was followed by decapitation. DRGs were extracted from rats, deheated, pooled, and incubated in Neurobasal A/B27 medium (Invitrogen, #12349–015) supplemented with B-27 (Invitrogen #17504), L-glutamine 1:400, L-glutamate 1:270.3, and penicillin/streptomycin 1:100 containing 0.2 U/mL collagenase P (collagenase P, Roche, #1213857) and incubated for 1 h at 37 °C, 5% CO2. DRGs were dissociated with pasteur pipettes and axon stumps were separated by BSA (Sigma-Aldrich, # A2153-100G) gradient centrifugation (14% BSA, 120 g, 8 min). Cells were resuspended in NBA medium, plated in 96-well imaging plate (Greiner BioOne Sensoplate, Black, #655896) precoated with poly-L-ornithine hydrochloride (0.1 mg/ml Sigma, #P2533)/laminin (5 µg/ml Invitrogen, #23017–015), and incubated overnight at 37 °C, 5% CO2.\nDRGs were stimulated after overnight incubation. Compounds were prepared as tenfold concentrated stock solutions, diluted in PBS (PAA, cat# H15-002), in v-bottom plates; 50 µL media from culture wells were mixed with the […] stock solutions, and 50 µL added back to the respective wells. Stimulation was performed with automated multichannel pipette and cells were kept in heated block during the stimulation. […]", "key": {"[1]": {"settings": "30 min, 0.8 µg/µL (xib13 148 µM, q = 4.32; xib1 154 µM, q = 4.07)"}}, "note": "Entries after “also recorded” stand apart in the source; their conditions may differ. Positions of bridges follow the written chain, without caps; N, C: chain ends. No end group written: not given here."}
{"sequence": "KRSCIRRFGRCDHRPNDCCYNSSCRCNLWGSNCRCQRMGLFQKWGK (disulfide 4-19, 11-24, 18-35, 26-33) [xib13]", "values": [{"measurement": "pErk1/2 activation", "result": "increase PKA-II and Erk1/2 sensitization signaling; also recorded: increased PKA-II and pErk1/2 activity"}, {"measurement": "increase in pErk1/2 signal", "setting": "5 min, 0.8 µg/µL (148 µM), q = 4.54", "result": "up to 2.5 fold"}, {"measurement": "increase in pErk1/2 signal", "setting": "[1]", "result": "≤ 2.3", "unit": "fold"}, {"measurement": "pErk1/2 response by neuron size", "result": "increased phosphorylation signals in both small-sized and large-sized sensory neurons"}]}
{"sequence": "RLFCIRHHKYCGHRPKRCCSGLFCRCNTFGTNCRCQSKGALGKLI (disulfide 4-19, 11-24, 18-35, 26-33) [xib1]", "values": [{"measurement": "pErk1/2 activation", "result": "increase PKA-II and Erk1/2 sensitization signaling; also recorded: increased PKA-II and pErk1/2 activity"}, {"measurement": "increase in pErk1/2 signal", "setting": "[1]", "result": 2.17, "unit": "fold"}, {"measurement": "pErk1/2 response by neuron size", "result": "increased phosphorylation signals in both small-sized and large-sized sensory neurons"}]}
